Columns and labels:
MCF7 cells = assay: Cell-viability assay (PrestoBlue); format: cell-based, Human; conditions: MCF7, 24 h treatment, normalized for Cu concentration, mean ± SD, N ≥ 3
Procedure: (§1) Human cancer cells (cervix: HeLa; and breast: MCF7) were obtained from American Type Culture Collection (ATCC, Manassas, VA, United States). Cells were routinely cultured with DMEM (Dulbecco’s modified Eagle’s medium, Invitrogen) for HeLa, and with DMEM/F-12 (Dulbecco’s MEM/Nutrient Mixture F-12 Ham, Invitrogen) for MCF7, both supplemented with 10% heat-inactivated fetal bovine serum (FBS, Invitrogen) at 37°C in a humidified 5% CO2 atmosphere.
(§2) HeLa and MFC7 cells were seeded into a 96-well plate at a cell density of 3·10^3 cells/well in 100 µL of culture medium and allowed to grow overnight. The next day, the C1-C5 complexes were added to cells at a range concentration of 0–200 μM. […] The growth inhibitory effect of the complexes was measured at 24 h using the PrestoBlue Cell Reagent (Life Technologies) assay. […] After 2 h incubation (37°C, 5% CO2), the fluorescence of each well was measured at 572 nm after excitation at 531 nm with a Microplate Reader Victor3 (Perkin Elmer). Cytotoxicity was evaluated by relative cell viability (%) for each sample related to the control well. The IC50 values were calculated from the obtained cell viability results. […] Cells were allowed then to evolve until a total incubation time of 72 h and the cell viability was measured with PrestoBlue®, as beforehand detailed.

HeLa cells = assay: Cell-viability assay (PrestoBlue); format: cell-based, Human; conditions: 24 h treatment, normalized for Cu concentration, mean ± SD, N ≥ 3
Procedure: as §1, §2

[1] = Ascorbate consumption experiment (ROS-generation capability, UV-vis); conditions: ascorbic acid 100 µM, complex 2 µM, 50 mM NaCl/5 mM TRIS-HCl pH 7.2, max 5% DMSO, UV-vis at 265 nm
Procedure: All the spectra were recorded at room temperature either on an Agilent HP 8453, a Varian Cary 50 Bio, a Varian Cary 60 Bio or a Perkin Elmer Lambda 650 spectrophotometer, using 1 cm quart-cuvettes. Ascorbate consumption experiments were monitored by UV-vis at the maximum absorption band of the ascorbic acid (100 µM) at 265 nm for about 45 min. CuCl2 and the assayed complexes C1-C3 were added at a final concentration of 2 µM in 50 mM NaCl/5 mM TRIS-HCl buffer (pH 7.2), with a maximum of 5% of DMSO.
Prior to biological evaluation, and after proving that the new C2-C5 Cu(II) complexes hold the same metallic core as C1, the impact of the ligand substituents on their catalytic properties, and therefore, ROS-generating capabilities ([Peña et al., 2021]), were confirmed with the two simplest functionalized Cu(II) compounds (C2 and C3), as model compounds bearing oppositely-charged functional moieties. The consumption of ascorbate was measured by UV-vis spectroscopy, monitoring its characteristic absorbance at 265 nm. The correlation of ascorbate consumption with the generation of ROS has proven to be a reliable method to effectively monitor ROS production ([Alies et al., 2013]; [Chassaing et al., 2013]).

For `[Cl][Cu][Cl]` [CuCl2, copper(II) chloride], the IC50 (MCF7 cells) was at least 200 µM, the IC50 (HeLa cells) was at least 200 µM and the “Time to (almost) total ascorbate consumption” value [1] was about 20 min.

From paper PMC9714576, “Cell-penetrating peptide-conjugated copper complexes for redox-mediated anticancer therapy” (Frontiers in Pharmacology, 2022)
